One experiment deals with human PLK4 (Homo sapiens (Human), UniProt O00444). Description: PLK4 inhibition assay (indirect ELISA). Type of experiment: biochemical. (In general: In an ELISA, binding on a coated surface is turned into a signal by an enzyme label.)
The target of the next experiment is Aurora B (Homo sapiens (Human), UniProt Q96GD4). Description: Aurora B inhibition assay (Z-Lyte). The conditions noted are these: read-out: Aurora B IC50 Ranges. It counts as biochemical.

Counter-ions that a name gives are not always drawn. Like-named read-outs stand apart in the source and are kept apart here. A value given as a limit tells only on which side of the number the result lay.

Chain of Aurora B (Q96GD4 whole entry): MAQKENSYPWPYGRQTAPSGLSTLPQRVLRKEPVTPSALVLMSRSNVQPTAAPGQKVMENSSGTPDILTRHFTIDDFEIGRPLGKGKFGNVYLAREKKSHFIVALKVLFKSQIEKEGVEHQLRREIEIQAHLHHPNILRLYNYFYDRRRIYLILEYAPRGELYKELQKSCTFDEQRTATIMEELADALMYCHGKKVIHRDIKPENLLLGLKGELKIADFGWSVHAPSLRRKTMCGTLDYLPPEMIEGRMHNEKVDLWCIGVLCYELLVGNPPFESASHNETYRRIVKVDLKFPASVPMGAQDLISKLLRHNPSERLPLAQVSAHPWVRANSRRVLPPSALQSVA
Chain of human PLK4 (O00444 1-391): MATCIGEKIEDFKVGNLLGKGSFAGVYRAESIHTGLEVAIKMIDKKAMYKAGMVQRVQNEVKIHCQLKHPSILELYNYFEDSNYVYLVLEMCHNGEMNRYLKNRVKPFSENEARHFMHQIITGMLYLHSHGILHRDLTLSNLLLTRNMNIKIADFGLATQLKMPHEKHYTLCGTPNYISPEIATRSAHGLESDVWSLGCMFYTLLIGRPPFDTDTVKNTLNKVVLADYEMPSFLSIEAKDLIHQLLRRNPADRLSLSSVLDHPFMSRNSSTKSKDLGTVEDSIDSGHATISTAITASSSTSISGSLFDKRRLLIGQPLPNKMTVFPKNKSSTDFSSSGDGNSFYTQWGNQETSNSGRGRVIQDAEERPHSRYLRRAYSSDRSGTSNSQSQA
Method for Aurora B: Aurora B inhibition was determined using the Z-Lyte assay kit from Invitrogen. […] The % inhibition values were determined according to the manufacturer's directions and IC50 values were obtained using a non-linear 4 point logistic curve fit (XLfit4, IDBS)

In general, IC50 refers to the concentration at which inhibition is half-maximal. Consider `COc1ccc2c(c1)[C@]1(C[C@H]1c1ccc3c(/C=C/c4ccc5c(c4)CNCC5)n[nH]c3c1)C(=O)N2` [Example A66, (1R,2S)-5′-methoxy-2-(3-((E)-2-(1,2,3,4-tetrahydroisoquinolin-7-yl)vinyl)-1H-indazol-6-yl)spiro[cyclopropane-1,3′-indolin]-2′-one 2,2,2-trifluoroacetate salt], for which the IC50 at human PLK4 (read-out: PLK4 IC50 Ranges) and on Aurora B was less than 100 nM in each case.
For the compound `CN1CCc2ccc(/C=C/c3n[nH]c4cc([C@@H]5C[C@@]56C(=O)Nc5ccccc56)ccc34)cc2C1` [Example A65, (1R,2S)-2-(3-((E)-2-(2-methyl-1,2,3,4-tetrahydroisoquinolin-7-yl)vinyl)-1H-indazol-6-yl)spiro[cyclopropane-1,3′-indolin]-2′-one 2,2,2-trifluoroacetate salt], the IC50 on human PLK4 (read-out: PLK4 IC50 Ranges) and on Aurora B was less than 100 nM throughout.
Consider `CN1CCN(c2ccc(-c3n[nH]c4cc([C@@H]5C[C@@]56C(=O)N(C)c5ccccc56)ccc34)cn2)CC1` (relative stereo) [Example A93, (1R*,2S*)-1′-methyl-2-(3-(6-(4-methylpiperazin-1-yl)pyridin-3-yl)-1H-indazol-6-yl)spiro[cyclopropane-1,3′-indolin]-2′-one bis(2,2,2-trifluoroacetate)], for which the 50% inhibitory concentration (IC50) at human PLK4 (read-out: PLK4 IC50 Ranges) and on Aurora B was less than 100 nM in each case.
In the case of `COc1ccc2c(c1)[C@]1(C[C@H]1c1ccc3c(-c4ccc(N5CCN(C6CCCCC6)CC5)cc4)n[nH]c3c1)C(=O)N2` [Example A193, (1R,2S)-2-(3-(4-(4-cyclohexylpiperazin-1-yl)phenyl)-1H-indazol-6-yl)-5′-methoxyspiro[cyclopropane-1,3′-indolin]-2′-one 2,2,2-trifluoroacetate], the IC50 on human PLK4 (read-out: PLK4 IC50 Ranges) and at Aurora B was less than 100 nM throughout.
On to `COc1ccc2c(c1)[C@]1(C[C@H]1c1ccc3c(/C=C/c4ccc5c(c4)CN(C)CC5)n[nH]c3c1)C(=O)N2` [Example A64, (1R,2S)-5′-methoxy-2-(3-((E)-2-(2-methyl-1,2,3,4-tetrahydroisoquinolin-7-yl)vinyl)-1H-indazol-6-yl)spiro[cyclopropane-1,3′-indolin]-2′-one 2,2,2-trifluoroacetate salt], for which the IC50 on human PLK4 (read-out: PLK4 IC50 Ranges) and on Aurora B was less than 100 nM throughout.
Take `O=C1Nc2ccccc2[C@]12C[C@H]2c1ccc2c(/C=C/c3ccc(OCCN4CCOCC4)cc3)n[nH]c2c1` [Example A204, (1R,2S)-(E)-2-(3-(4-(2-morpholinoethoxy)styryl)-1H-indazol-6-yl)spiro[cyclopropane-1,3′-indolin]-2′-one 2,2,2-trifluoroacetate]: the IC50 on human PLK4 (read-out: PLK4 IC50 Ranges) and at Aurora B was less than 100 nM throughout.
`CN1CCc2cc(-c3n[nH]c4cc([C@@H]5C[C@@]56C(=O)Nc5ccccc56)ccc34)ccc2C1` [Example A76, (1R,2S)-2-(3-(2-methyl-1,2,3,4-tetrahydroisoquinolin-6-yl)-1H-indazol-6-yl)spiro[cyclopropane-1,3′-indolin]-2′-one 2,2,2-trifluoroacetate salt]: the 50% inhibitory concentration (IC50) on human PLK4 (read-out: PLK4 IC50 Ranges) and on Aurora B was less than 100 nM each time.
`COc1ccc2c(c1)[C@]1(C[C@H]1c1ccc3c(/C=C/c4ccc(CN5CCCOCC5)cc4)n[nH]c3c1)C(=O)N2` [Example A73, (1R,2S)-(E)-2-(3-(4-((1,4-oxazepan-4-yl)methyl)styryl)-1H-indazol-6-yl)-5′-methoxyspiro[cyclopropane-1,3′-indolin]-2′-one 2,2,2-trifluoroacetate salt]: the IC50 at human PLK4 (read-out: PLK4 IC50 Ranges) and on Aurora B was less than 100 nM each time.
In the case of `C[C@@H]1CCC[C@H](C)N1Cc1ccc(/C=C/c2n[nH]c3cc([C@@H]4C[C@@]45C(=O)Nc4ccccc45)ccc23)cc1` [Example A201, (1R,2S)-(E)-2-(3-(4-((cis-2,6-dimethylpiperidin-1-yl)methyl)styryl)-1H-indazol-6-yl)spiro[cyclopropane-1,3′-indolin]-2′-one 2,2,2-trifluoroacetate], the half-inhibitory concentration (IC50) on human PLK4 (read-out: PLK4 IC50 Ranges) and at Aurora B was less than 100 nM each time.
With `CN1CCc2cc(/C=C/c3n[nH]c4cc([C@@H]5C[C@@]56C(=O)Nc5ccccc56)ccc34)ccc2C1` [Example A74, (1R,2S)-2-(3-((E)-2-(2-methyl-1,2,3,4-tetrahydroisoquinolin-6-yl)vinyl)-1H-indazol-6-yl)spiro[cyclopropane-1,3′-indolin]-2′-one 2,2,2-trifluoroacetate salt], the IC50 at human PLK4 (read-out: PLK4 IC50 Ranges) and at Aurora B was less than 100 nM each time.
Consider `CCc1ccc2c(c1)[C@]1(C[C@H]1c1ccc3c(-c4ccc(N5CCN(C)CC5)cc4)n[nH]c3c1)C(=O)N2` (relative stereo) [Example A142, (1R*,2S*)-5′-ethyl-2-(3-(4-(4-methylpiperazin-1-yl)phenyl)-1H-indazol-6-yl)spiro[cyclopropane-1,3′-indolin]-2′-one 2,2,2-trifluoroacetate], for which the concentration for half-maximal inhibition (IC50) at human PLK4 (read-out: PLK4 IC50 Ranges) and on Aurora B was less than 100 nM each time.
On to `COc1ccc2c(c1)[C@]1(C[C@H]1c1ccc3c(/C=C/c4ccc(CN5CCOCC5)s4)n[nH]c3c1)C(=O)N2` [Example A105, (1R,2S)-5′-methoxy-2-(3-((E)-2-(5-(morpholinomethyl)thiophen-2-yl)vinyl)-1H-indazol-6-yl)spiro[cyclopropane-1,3′-indolin]-2′-one hydrochloride], for which the 50% inhibitory concentration (IC50) on human PLK4 (read-out: PLK4 IC50 Ranges) and on Aurora B was less than 100 nM throughout.
With `COc1ccc2c(c1)[C@]1(C[C@H]1c1ccc3c(-c4ccc(N5CCNCC5)cc4)n[nH]c3c1)C(=O)N2` (relative stereo) [Example A48, (1R*,2S*)-5′-methoxy-2-(3-(4-(piperazin-1-yl)phenyl)-1H-indazol-6-yl)spiro[cyclopropane-1,3′-indolin]-2′-one 2,2,2-trifluoroacetate], the IC50 against human PLK4 and on Aurora B was less than 100 nM each time.
Turning to `COc1ccc2c(c1)[C@]1(C[C@H]1c1ccc3c(/C=C/c4ccc(CN5[C@H](C)CCC[C@@H]5C)cc4)n[nH]c3c1)C(=O)N2` [Example A203, (1R,2S)-(E)-2-(3-(4-((cis-2,6-dimethylpiperidin-1-yl)methyl)styryl)-1H-indazol-6-yl)-5′-methoxyspiro[cyclopropane-1,3′-indolin]-2′-one 2,2,2-trifluoroacetate], the IC50 at human PLK4 (read-out: PLK4 IC50 Ranges) and on Aurora B was less than 100 nM throughout.
For `CCN(CC)Cc1c(F)cc(/C=C/c2n[nH]c3cc([C@@H]4C[C@@]45C(=O)Nc4ccccc45)ccc23)cc1F` [Example A221, (1R,2S)-(E)-2-(3-(4-((diethylamino)methyl)-3,5-difluorostyryl)-1H-indazol-6-yl)spiro[cyclopropane-1,3′-indolin]-2′-one 2,2,2-trifluoroacetate], the half-inhibitory concentration (IC50) at human PLK4 (read-out: PLK4 IC50 Ranges) and at Aurora B was less than 100 nM each time.
In the case of `CN1CCN(c2ccc(/C=C/c3n[nH]c4cc([C@@H]5C[C@@]56C(=O)N(C)c5ccccc56)ccc34)cn2)CC1` [Example A110, (1R,2S)-1′-methyl-2-(3-((E)-2-(6-(4-methylpiperazin-1-yl)pyridin-3-yl)vinyl)-1H-indazol-6-yl)spiro[cyclopropane-1,3′-indolin]-2′-one bis(2,2,2-trifluoro acetate)], the IC50 on human PLK4 (read-out: PLK4 IC50 Ranges) and on Aurora B was less than 100 nM in each case.
In the case of `O=C1Nc2ncc(Br)cc2[C@]12C[C@H]2c1ccc2c(/C=C/c3cccnc3)n[nH]c2c1` (relative stereo) [Example A27, (1R*,2S*)-5′-bromo-2-(3-((E)-2-(pyridin-3-yl)vinyl-1H-indazol-6-yl)spiro[cyclopropane-1,3′-pyrrolo[2,3-b]pyridin]-2′(1′H)-one], the IC50 on human PLK4 (read-out: PLK4 IC50 Ranges) and on Aurora B was less than 100 nM in each case.
For `COc1ccc2c(c1)[C@]1(C[C@H]1c1ccc3c(-c4ccc(OCCN(C)C)cc4)n[nH]c3c1)C(=O)N2` [Example A69, (1R,2S)-2-(3-(4-(2-(dimethylamino)ethoxy)phenyl)-1H-indazol-6-yl)-5′-methoxyspiro[cyclopropane-1,3′-indolin]-2′-one 2,2,2-trifluoroacetate salt], the 50% inhibitory concentration (IC50) on human PLK4 (read-out: PLK4 IC50 Ranges) and at Aurora B was less than 100 nM each time.
As to `COc1ccc2c(c1)[C@]1(C[C@H]1c1ccc3c(/C=C/c4ccc(CC5CCN(C)CC5)cc4)n[nH]c3c1)C(=O)N2` [Example A82, (1R,2S)-(E)-5′-methoxy-2-(3-(4-((1-methylpiperidin-4-yl)methyl)styryl)-1H-indazol-6-yl)spiro[cyclopropane-1,3′-indolin]-2′-one 2,2,2-trifluoroacetate salt], the IC50 on human PLK4 (read-out: PLK4 IC50 Ranges) and at Aurora B was less than 100 nM throughout.
With `O=C1Nc2ccccc2[C@]12C[C@H]2c1ccc2c(/C=C/c3ccc(CN4CCOCC4)c(F)c3)n[nH]c2c1` [Example A200, (1R,2S)-(E)-2-(3-(3-fluoro-4-(morpholinomethyl)styryl)-1H-indazol-6-yl)spiro[cyclopropane-1,3′-indolin]-2′-one 2,2,2-trifluoroacetate], the IC50 on human PLK4 (read-out: PLK4 IC50 Ranges) and at Aurora B was less than 100 nM in each case.
Take `CCN(CC)Cc1ccc(/C=C/c2n[nH]c3cc([C@@H]4C[C@@]45C(=O)Nc4ccc(OC)cc45)ccc23)cc1` [Example A206, (1R,2S)-(E)-2-(3-(4-((diethylamino)methyl)styryl)-1H-indazol-6-yl)-5′-methoxy spiro[cyclopropane-1,3′-indolin]-2′-one 2,2,2-trifluoroacetate]: the 50% inhibitory concentration (IC50) at human PLK4 (read-out: PLK4 IC50 Ranges) and at Aurora B was less than 100 nM throughout.
In the case of `CCN(CC)Cc1c(F)cc(/C=C/c2n[nH]c3cc([C@@H]4C[C@@]45C(=O)Nc4ccc(OC)cc45)ccc23)cc1F` [Example A146, (1R,2S)-(E)-2-(3-(4-((diethylamino)methyl)-3,5-difluorostyryl)-1H-indazol-6-yl)-5′-methoxyspiro[cyclopropane-1,3′-indolin]-2′-one 2,2,2-trifluoroacetate], the IC50 at human PLK4 (read-out: PLK4 IC50 Ranges) and on Aurora B was less than 100 nM each time.
Take `O=C1Nc2ccccc2[C@]12C[C@H]2c1ccc2c(/C=C/c3cc(F)c(CN4CCOCC4)c(F)c3)n[nH]c2c1` [Example A116, (1R,2S)-(E)-2-(3-(3,5-difluoro-4-(morpholinomethyl)styryl)-1H-indazol-6-yl)spiro[cyclopropane-1,3′-indolin]-2′-one 2,2,2-trifluoroacetate]: the IC50 on human PLK4 (read-out: PLK4 IC50 Ranges) and on Aurora B was less than 100 nM each time.

These data come from patent publication US9907800B2, “Kinase inhibitors and method of treating cancer” (University Health Network, priority 2010, dated 2018).
